Assay results from US11130743B2, “Heterocyclic ligands of PAR1 and methods of use” (Marquette University, priority 2019, dated 2021).
Values after ≈ are worked out from the molar mass of the structure shown.

Assays:
[1] = molecular target: T1, peripheral benzodiazepine receptor (PBR) (Rattus norvegicus, UniProt P16257); experiment: PDSP off-target radioligand binding, PBR; details: PDSP profiling
T1 construct: Psychoactive Drug Screening Program (PDSP)

human washed platelets = experiment: human platelet aggregation assay with PAR1/2 agonist SFLLRN-NH2; assay type: cell-based; details: parmodulins at 10 μM, SFLLRN-NH2 (5 μM)
Method: FIGS. 5A-5B depicts results of a human platelet aggregation assay of A) ML161 (10 μM, red trace) and B) NRD-21 (10 μM, red trace) in the presence of the PAR1/2 agonist SFLLRN-NH2 ([…]). Blue traces=DMSO.
Next, an assay was performed to measure the ability of NRD-21 to inhibit platelet aggregation. PAR1 is highly expressed in platelets, and its activation leads to aggregation and coagulation. The platelet aggregation assay was performed with ML161 and NRD-21. In both cases, human washed platelets were incubated with parmodulins at 10 μM, then the PAR1/2 agonist SFLLRN-NH2 (5 μM) was added. (FIG. 5).

[2] = molecular target: T2, serotonin transporter (SERT) (Homo sapiens, UniProt P31645); experiment: PDSP off-target radioligand binding, SERT
T2 construct: Psychoactive Drug Screening Program (PDSP)
T2 sequence (P31645 whole entry, species assumed): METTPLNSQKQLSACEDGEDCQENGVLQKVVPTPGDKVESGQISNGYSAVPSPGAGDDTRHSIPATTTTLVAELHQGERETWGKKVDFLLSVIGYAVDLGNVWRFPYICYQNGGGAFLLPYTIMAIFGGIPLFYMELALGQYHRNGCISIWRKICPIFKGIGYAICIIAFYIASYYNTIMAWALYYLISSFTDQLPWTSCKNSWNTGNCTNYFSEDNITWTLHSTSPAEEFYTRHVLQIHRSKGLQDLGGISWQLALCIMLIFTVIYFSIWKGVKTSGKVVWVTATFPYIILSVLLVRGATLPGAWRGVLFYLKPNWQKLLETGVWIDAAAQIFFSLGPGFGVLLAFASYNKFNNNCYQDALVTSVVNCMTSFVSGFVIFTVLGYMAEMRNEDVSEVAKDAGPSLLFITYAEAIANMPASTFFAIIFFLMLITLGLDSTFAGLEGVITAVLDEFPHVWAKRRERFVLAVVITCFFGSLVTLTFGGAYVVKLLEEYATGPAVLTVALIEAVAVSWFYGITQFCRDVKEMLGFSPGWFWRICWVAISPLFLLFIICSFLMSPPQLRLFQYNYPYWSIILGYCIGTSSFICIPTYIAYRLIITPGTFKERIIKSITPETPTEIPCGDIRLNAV

[3] = tested on: tissue factor (TF) expression; experiment: qPCR assay of TNF-α induced tissue factor (TF) expression in HUVEC; assay type: cell-based, human; details: 10 μM inhibitor, TNF-α 25 ng/mL, mRNA at 4 h
Method: FIG. 6 is a graph depicting results of a qPCR assay (n=3) measuring the inhibition of TNF-α (25 ng/mL) induced tissue factor (TF) expression in HUVEC after treatment with ML161 and NRD-21 (10 μM). Inhibitors were added at t=0, TNF-α was added at t=1 h, and mRNA was measured at t=4 h.
To this end, we performed a qPCR assay measuring the expression of tissue factor (TF) in endothelial cells (HUVEC) in response to the inflammatory cytokine Tumor Necrosis Factor-alpha (TNF-α). TF has been long established to mediate the pro-inflammatory and pro-coagulant effects^27 of TNF-α^28,29 and endotoxins,^30 and unnatural TF expression is therefore the driver of disseminated intravascular coagulation (DIC) observed under conditions of cancer or sepsis.^31 We measured the level of TF mRNA 4 h after treatment with ML161 or NRD-21 followed by the addition of TNF-α (FIG. 6).

[4] = kinetic aqueous solubility assay; assay type: physicochemical; details: aqueous solution with 2.5% DMSO
human plasma stability = assay type: in vitro ADME; details: after 4 h in human plasma
Source text: FIG. 8. Human plasma stability of ML161 (left) and NRD-21 (right). Points indicate the natural logarithm of the average concentration of compound remaining, with 3 replicates at each time point.

hepG2 = experiment: toxicity in a human cell line (hepG2); assay type: cell-based
PAR1 [5] = molecular target: T3, PAR1 (Homo sapiens, UniProt P25116); experiment: PAR1 (TFLLRN-NH2)-driven intracellular calcium mobilization (iCa2+) assay with Ea.hy926 cells; assay type: cell-based; details: for iCa2+ assay pIC50 / IC50: 5 μM TFLLRN-NH2, EA.hy926 cells, curves fitted to 3 wells per concentration; for inhibition at 10 µM: EA.hy 926, 10 μM compound, 5 μM TFLLRN-NH2, adherent EA.hy926 endothelial cells, n=4 wells, ± SEM, read-out: iCa2+ assay % Inhib; for IC50: read-out: iCa2+ assay pIC50 (converted)
T3 construct: endogenous in cells; host or cells: EA.hy926 endothelial cells
T3 sequence (P25116 22-425): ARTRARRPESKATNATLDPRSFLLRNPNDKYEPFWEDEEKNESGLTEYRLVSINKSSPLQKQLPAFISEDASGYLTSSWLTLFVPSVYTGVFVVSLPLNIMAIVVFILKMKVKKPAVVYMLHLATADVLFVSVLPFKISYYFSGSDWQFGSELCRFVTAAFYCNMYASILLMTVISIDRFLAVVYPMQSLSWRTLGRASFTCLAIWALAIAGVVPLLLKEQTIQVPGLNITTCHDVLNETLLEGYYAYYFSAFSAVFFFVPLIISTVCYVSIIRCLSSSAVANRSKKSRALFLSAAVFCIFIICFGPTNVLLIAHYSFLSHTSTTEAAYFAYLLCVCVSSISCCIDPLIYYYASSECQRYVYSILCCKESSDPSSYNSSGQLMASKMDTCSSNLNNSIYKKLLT
Method: FIGS. 1A-1D depicts concentration-response curves for PAR1 antagonists in the TFLLRN-NH2-mediated (5 μM) intracellular calcium mobilization (iCa^2+) assay with Ea.hy926 cells: A) 35 (VAK-7), B) 39 (NRD-23), C) 9 (NRD-25), D) 38 (NRD-21). Cells were loaded with the calcium-binding dye Fluo-4/AM, and changes in calcium concentration were measured with a plate reader.
Our interest in measuring the effects of parmodulins in endothelial cells led us to develop a protocol for an […] calcium mobilization (iCa^2+) assay using adherent Ea.hy926 cells in 96 well plates.^24 This assay also offers higher throughput and lower variability than the platelet P-selectin assay, so we have utilized it as our primary assay for our ongoing studies. Compounds were screened in 96 well plates at a concentration of 10 μM, using the PAR1 tethered ligand peptide TFLLRN (5 μM) as agonist.
The intracellular calcium mobilization assay was performed with Ea.hy926 cells according to our published protocol (Bioorg. Med. Chem. 2018, 9, 2514-2529), using TFLLRN-NH2 as PAR1 agonist.
^aAssays were performed with adherent EA.hy926 endothelial cells. % Inhibition was measured at 10 μM with 5 μM TFLLRN-NH2 and n=4 wells, unless otherwise noted, with standard error of the mean (SEM) provided. pIC50s (-logIC50S) were estimated from curves fitted to measurements on 3 separate wells for each concentration, using 4-variable non-linear regression in GraphPad Prism v.6.

mouse plasma stability = assay type: in vitro ADME; details: after 4 h in mouse plasma
Method: The term “plasma stability” as used herein refers to the ability of the compound to remain intact after incubation with plasma, for example, mouse plasma or human plasma, after a certain period of time. For example, the compounds of the present invention (e.g., compounds of formula I) have a greater half-life for plasma stability than prior compounds (for example, greater half-life stability than ML161). Methods of determining the plasma stability of the compounds are known in the art. For example, one can measure the amount of compound remaining by HPLC after a 4 h incubation in plasma, or if multiple time points are taken, a half-life for plasma stability can be calculated. As described in the Examples and Table 5, the % compound remaining after 4 h-incubation in mouse plasma is substantially better than the compounds of the prior art (e.g., ML161). For example, increased plasma stability can be at least 20% of the compound remains after 4 hour incubation in plasma, alternatively at least 30% of the compound remains after 4 hour incubation in plasma.
We measured its stability and a number of parameters relevant to its use as an in vivo probe (Table 5, FIG. 7). Importantly, NRD-21 is much more plasma stable than ML161. After 4 h in mouse plasma, 32% of NRD-21 remained, while ML161 was less than 1%.

[6] = stability in human liver microsomes; assay type: in vitro ADME; details: 1 h
[7] = tested on: necrosis of coronary tissue; details: mouse MI model, reference 23; cited from earlier work
[8] = species not stated in b8; mouse plasma; reference 20; cited from earlier work
PAR1 [9] = molecular target: T3, PAR1; details: from reference 24; cited from earlier work

**Q.** Which “effect on radioligand binding to PBR” value [1] does the source give for `O=C(Nc1cccc(NC(=O)c2ccccc2Br)c1)c1cnco1` [Compound 5, N-[3-(2-bromobenzamido)phenyl]-1,3-oxazole-5-carboxamide] here?
**A.** Its value is “inhibition of binding”.

**Q.** And the “inhibition of platelet aggregation” value (human washed platelets)?
**A.** The value was “Complete inhibition of platelet aggregation”.

**Q.** What about the “effect on SERT in radioligand binding profiling” value [2] of the same molecule?
**A.** The value was “activation”.

**Q.** What about the “TF mRNA level after TNF-α” value [3] of the same molecule?
**A.** The value was “dropping TF RNA levels to below baseline levels”.

**Q.** What about the solubility [4] of the same molecule?
**A.** The solubility was 17 µM (≈ 6.57 µg/mL).

**Q.** And the “% compound remaining in human plasma” value (human plasma stability)?
**A.** The value was 97%.

**Q.** And the “toxicity in hepG2” value (hepG2)?
**A.** Its value is “no measurable toxicity”.

**Q.** What about the “mode of action at PAR1” value (PAR1 [5]) of the same molecule?
**A.** Its value is “selective negative allosteric modulator of PAR1”.

**Q.** What about the “iCa2+ assay pIC50” value (PAR1 [5]) of the same molecule?
**A.** Its value is 6.3 ± 0.1.

**Q.** What about the inhibition at 10 µM (PAR1 [5]) of the same molecule?
**A.** The inhibition at 10 µM was 59 ± 13%.

**Q.** And the “% compound remaining in mouse plasma” value (mouse plasma stability)?
**A.** Its value is 32%.

**Q.** And the “stability in the presence of human liver microsomes” value [6]?
**A.** The value was “no apparent degradation after 1 h”.

**Q.** With `O=C(Nc1cccc(NC(=O)c2ccccc2Br)c1)c1cocn1` [Compound 6, N-[3-(2-bromobenzamido)phenyl]-1,3-oxazole-4-carboxamide] as the molecule, how does the “iCa2+ assay pIC50” value (PAR1 [5]) read?
**A.** The value was 6.4 ± 0.1.

**Q.** What about the inhibition at 10 µM (PAR1 [5]) of the same molecule?
**A.** Its inhibition at 10 µM is 82 ± 1%.

**Q.** What does the source list for `O=C(Nc1cccc(NC(=O)c2ccccc2Cl)c1)c1cnco1` [Compound 7, N-[3-(2-chlorobenzamido)phenyl]-1,3-oxazole-5-carboxamide]?
**A.** IC50 (PAR1 [5]): 398 nM; inhibition at 10 µM (PAR1 [5]): 66 ± 13%

**Q.** For `O=C(Nc1cccc(NC(=O)c2ccccc2Br)c1)c1cncs1` [Compound 8, N-[3-(2-bromobenzamido)phenyl]-1,3-thiazole-5-carboxamide], which IC50 (PAR1 [5]) is on record?
**A.** Its IC50 is 93.3 nM.

**Q.** And the inhibition at 10 µM (PAR1 [5])?
**A.** Its inhibition at 10 µM is 56 ± 6%.

**Q.** For `O=C(Nc1cccc(NC(=O)c2ccccc2Br)c1)c1ccoc1` [Compound 9, N-[3-(2-bromobenzamido)phenyl]furan-3-carboxamide], which IC50 (PAR1 [5]) is on record?
**A.** The IC50 was 40.7 nM.

**Q.** What about the inhibition at 10 µM (PAR1 [5]) of the same molecule?
**A.** The inhibition at 10 µM was 97 ± 13%.

**Q.** With `O=C(Nc1cccc(NC(=O)C2CCCO2)c1)c1ccccc1Br` (centres unmarked) [Compound 10, N-[3-(2-bromobenzamido)phenyl]oxolane-2-carboxamide] as the molecule, how does the inhibition at 10 µM (PAR1 [5]) read?
**A.** The inhibition at 10 µM was 42 ± 3%.

**Q.** With `O=C(Nc1cccc(NC(=O)C2CCOC2)c1)c1ccccc1Br` (centres unmarked) [Compound 11, N-[3-(2-bromobenzamido)phenyl]oxolane-3-carboxamide] as the molecule, how does the inhibition at 10 µM (PAR1 [5]) read?
**A.** The inhibition at 10 µM was 44 ± 2%.

**Q.** For `CCCC(=O)Nc1cccc(NC(=O)c2ccccc2Br)c1` [ML161, reference compound], which “effect on radioligand binding to PBR” value [1] is on record?
**A.** Its value is “inhibition of binding”.

**Q.** What about the “inhibition of platelet aggregation” value (human washed platelets) of the same molecule?
**A.** The value was “Complete inhibition of platelet aggregation”.

**Q.** What about the “effect on SERT in radioligand binding profiling” value [2] of the same molecule?
**A.** Its value is “activation”.

**Q.** And the “minimizing necrosis of coronary tissue” value [7]?
**A.** Its value is “highly effective at minimizing necrosis of coronary tissue”.

**Q.** What about the “TF mRNA level after TNF-α” value [3] of the same molecule?
**A.** The value was “blocked the ˜3-fold increase in TF expression”.

**Q.** And the “% compound remaining in human plasma” value (human plasma stability)?
**A.** Its value is 79%.

**Q.** What about the stability in plasma [8] of the same molecule?
**A.** The stability in plasma was “low stability in plasma”.

**Q.** What about the “mode of action at PAR1 signaling via Gq” value (PAR1 [9]) of the same molecule?
**A.** The value was “selective, reversible, and allosteric inhibitors (negative allosteric modulators)”.

**Q.** What about the “% compound remaining in mouse plasma” value (mouse plasma stability) of the same molecule?
**A.** The value was “less than 1%”.

**Q.** What about the “stability in the presence of human liver microsomes” value [6] of the same molecule?
**A.** The value was “excellent stability”.
